Marks after values point to notes of the source that are not given here.
What was measured:
db/db mice [1] = assay: Plasma biochemical parameters (AST, ALT, BUN, Cr, HbA1c); conditions: daily 3 weeks then stopped, DMH 0.41, MER 0.205, CEFT 0.82, PEN 1.473, TIE 0.41 mg/g bw i.p., MET 0.3 mg/g bw oral, week 9
Protocol: Inflammatory markers such as serum aspartate aminotransferase (AST), alanine aminotransferase (ALT), blood urea nitrogen (BUN), creatinine (Cr), and hemoglobin A1c (HbA1c) were measured using a BMC-Hitachi 717 chemistry auto analyzer.

db/db mice [2] = assay: Oral glucose tolerance test (OGTT); assay type: in vivo; conditions: for OGTT glucose concentration versus G8 group (FIG. 6A): week 6 (medication stopped for 3 weeks), time points of 30 min and 60 min; for OGTT glucose concentration versus G8 group (FIG. 6B): week 9 (medication stopped for 6 weeks), time points of 30 min, 60 min and 120 min
Protocol: Blood was sampled from the tail vein, and FPG levels were measured and recorded as the basic blood glucose levels. […] The total area under the curve (AUC) in OGTT was plotted and calculated by the Area Under Coordinates Program (StatsToDo Server, Department of Obstetrics and Gynecology, Chinese University of Hong Kong).

db/db mice [3] = assay: Histopathological assessment (H&E stain); assay type: in vivo
Excerpt: For histopathological assessment, all mice were sacrificed by 95% CO2 asphyxiation at the end of the study period. Their brain, liver, kidney, pancreas, and epididymal fat pads were removed, fixed in 10% phosphate-buffered formalin, and embedded in paraffin. Tissues embedded in paraffin were cut into 4-μm-thick sections that were then stained with hematoxylin-eosin (i.e., H&E stain).

db/db mice [4] = assay: Food and water intake of mice; assay type: in vivo; conditions: daily 3 weeks then stopped, DMH 0.41, MER 0.205, CEFT 0.82, PEN 1.473, TIE 0.41 mg/g bw i.p., MET 0.3 mg/g bw oral, average
Protocol: Four to five weeks old db/db mice (BKS.Cg-Dock7^m+/+Lepr^db/JNarl) and m/m mice (BKS.Cg-Dock7^m+/Dock7^m+) were obtained from National Laboratory Animal Center ([…], Taiwan). […] PMI Nutrition International, Brentwood, Mo.) and water ad libitum. […] The mouse body weight (bw) and the amounts of water and food intake were recorded weekly for the entire study period.

[5] = 0.41 mg/g bw/day i.p. for 3 weeks (Example 1)

| Compound | BUN (db/db mice [1]) | OGTT glucose concentration versus G8 group (FIG. 6A) (db/db mice [2]) | OGTT glucose concentration versus G8 group (FIG. 6B) (db/db mice [2]) | Kidney histological changes (tubular degeneration and necrosis, mineralization deposition, hyaline cast) (db/db mice [3]; Example 2, end of study) | further results |
| --- | --- | --- | --- | --- | --- |
| C[C@@H](O)[C@H]1C(=O)N2C(C(=O)O)=C(S[C@@H]3CN[C@H](C(=O)Nc4cccc(C(=O)O)c4)C3)[C@H](C)[C@H]12 [DMH, ertapenem] | 44 ± 2^d mg/dL | significantly lower than that in the G8 group | significantly lower than that in the G8 group | more apparent in metformin-treated mice than in ertapenem-treated mice | OGTT glucose concentration versus DB group (FIG. 1) (db/db mice [2]; 0.41 mg/g bw/day i.p., week 3, time points of 90 min and 120 min): significantly lower than that in the DB group; Effect on oral glucose tolerance after treatment stopped (db/db mice [2]; treatment had been stopped for 10 weeks (Example 2)): effectively increased the oral glucose tolerance; Injuries in brain, liver, kidney, pancreas and epididymal fat pads (db/db mice [3]; [5]): no significant injuries; Severity and incidence of liver glycogen storage versus DB group (db/db mice [3]; [5]): slighter than that in the DB group; Injuries in liver, kidney, pancreas and epididymal fat pads (db/db mice [3]; Example 2, end of study): No significant injuries |
| C[C@@H](O)[C@H]1C(=O)N2C(C(=O)O)=C(S[C@@H]3CN[C@H](C(=O)N(C)C)C3)[C@H](C)[C@H]12 [MER, meropenem hydrate] | 43 ± 2^bd mg/dL | – | – | – | ALT (db/db mice [1]): 89 ± 5^bcd U/L |
| CN(C)C(=N)N=C(N)N [Met, metformin] | – | – | – | more apparent in metformin-treated mice than in ertapenem-treated mice | – |
| CC1(C)S[C@@H]2[C@H](NC(=O)Cc3ccccc3)C(=O)N2[C@H]1C(=O)O [PEN, penicillin G] | – | significantly lower than that in the G8 group | significantly lower than that in the G8 group | – | Diet intake (db/db mice [4]): 4.0 ± 0.9^a g/mice/day |

From patent publication US11564908B2, “Beta-lactam compounds or salts thereof for use in long-acting prevention or treatment of a glucose metabolism disorder” (GLYCOLYSIS BIOMED CO., LTD., priority 2019, dated 2023)
